From ChEMBL document CHEMBL5233271, “Discovering the Mechanisms of Wikstroelide E as a Potential HIV-Latency-Reversing Agent by Transcriptome Profiling” (J Nat Prod, 2021) come the findings set out here.

Calls of active or inactive are those of the source. The rule behind the calls is not given here.

Test [1] has as its system Human immunodeficiency virus. Kind of test: Reactivation of latent HIV in human NH1 cells at 5 uM measured after 24 hrs by luciferase based analysis. It counts as functional, organism-based.
Test [2] concerns Human immunodeficiency virus. Kind of test: Reactivation of latent HIV in human NH2 cells at 5 uM measured after 24 hrs by luciferase based analysis. The test is classed as functional, organism-based.

Regarding `CC(=O)O[C@@]12C[C@@H](C)[C@@]3(O)[C@@H](C=C(CO)C[C@]4(O)C(=O)C(C)=C[C@@H]34)[C@@H]1C2(C)C`, the outcome in test [1] and in test [2] was Active.
